Experimental data taken from patent US9365853B2, “Matriptase inhibitors and uses thereof against orthomyxoviridae infections” (priority 2011, dated 2016).
Read-outs that look alike come from different tables or passages of the source. Where a SMILES comes first, the peptide text is derived from it. The star is where a group is joined. X1 = N=C(N)NCCC[C@@H](N*)C(=O)c1nc2ccccc2s1; CH2Cl = ClC*

Experiments:
matriptase [1] = target: T1, matriptase (Homo sapiens (Human), UniProt Q9Y5Y6); experiment: Ki determination for matriptase (Morrison tight-binding or mixed model, fluorogenic Boc-Gln-Ala-Arg-AMC); type: biochemical; settings: for reduced potency (lower inhibition) compared to compound 1: matriptase Ki relative to compound 1
furin = furin (Homo sapiens (Human), UniProt P09958); experiment: Ki determination, selectivity profile: furin (Boc-Arg-Arg-Val-Arg-AMC); type: biochemical; settings: furin (protease #7); NI = no inhibition, 10 μM
Sequence of furin (P09958 108-794 limits assumed): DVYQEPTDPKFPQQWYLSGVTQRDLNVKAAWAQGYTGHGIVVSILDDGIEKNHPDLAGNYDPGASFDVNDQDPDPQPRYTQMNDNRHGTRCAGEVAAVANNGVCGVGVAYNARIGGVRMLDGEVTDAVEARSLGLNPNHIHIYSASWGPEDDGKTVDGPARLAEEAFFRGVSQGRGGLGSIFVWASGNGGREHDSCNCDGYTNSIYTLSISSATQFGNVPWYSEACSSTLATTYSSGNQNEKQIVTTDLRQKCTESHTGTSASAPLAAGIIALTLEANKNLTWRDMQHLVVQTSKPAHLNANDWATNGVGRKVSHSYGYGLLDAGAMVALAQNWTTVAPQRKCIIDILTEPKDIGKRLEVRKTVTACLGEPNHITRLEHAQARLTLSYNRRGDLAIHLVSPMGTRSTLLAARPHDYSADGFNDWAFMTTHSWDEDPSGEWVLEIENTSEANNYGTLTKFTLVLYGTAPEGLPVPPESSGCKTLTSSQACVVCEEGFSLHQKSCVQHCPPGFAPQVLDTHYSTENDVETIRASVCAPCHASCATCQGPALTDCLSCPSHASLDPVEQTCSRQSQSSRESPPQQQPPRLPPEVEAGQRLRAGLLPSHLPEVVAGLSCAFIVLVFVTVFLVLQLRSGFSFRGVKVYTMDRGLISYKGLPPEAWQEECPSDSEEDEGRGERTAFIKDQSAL

[2] = target: Recombinant purified human matriptase (amino acids 596-855) (Homo sapiens (Human), UniProt Q9Y5Y6); experiment: biochemical; type: biochemical
Sequence of Recombinant purified human matriptase (amino acids 596-855) (Q9Y5Y6 596-855 limits assumed): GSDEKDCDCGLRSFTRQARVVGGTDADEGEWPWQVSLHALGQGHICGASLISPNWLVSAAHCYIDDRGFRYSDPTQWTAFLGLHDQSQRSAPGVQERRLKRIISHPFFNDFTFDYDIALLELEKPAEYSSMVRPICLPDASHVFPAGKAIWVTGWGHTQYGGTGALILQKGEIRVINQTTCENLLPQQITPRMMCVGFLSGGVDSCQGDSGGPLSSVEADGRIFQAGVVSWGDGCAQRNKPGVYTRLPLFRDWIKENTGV

matriptase [3] = target: T1, matriptase; experiment: Matriptase inhibition in cellulo (HEK293 transfected with pcDNA3.1-matriptase, activity in media); type: cell-based; settings: HEK293, 24 h incubation, read-out: inhibition of matriptase activity in cultured cells
Description: Human embryonic kidney cells (HEK293) were transfected with 6 μg of pcDNA3.1™ (Mock) or pcDNA3.1™-matriptase (Matriptase) using Lipofectamine 2000™ reagent (Invitrogen) in 10-cm plates. […] After 24 h incubation, media was incubated with Boc-Gln-Ala-Arg-AMC substrate (50 μM) and fluorescence measured for 20 minutes at 37° C. Enzyme activity was determined in terms of released fluorescence units per minutes per μl of media for each condition.

[4] = test system: influenza A/Puerto Rico/8/34 virus; type: cell-based, influenza A/Puerto Rico/8/34 virus (PR8)
[5] = test system: influenza A/Puerto Rico/8/34 virus; type: cell-based, influenza A/Puerto Rico/8/34 virus (PR8); remark: listed apart in the source
[6] = test system: influenza A/Puerto Rico/8/34; type: cell-based, influenza A/Puerto Rico/8/34 (H1N1)
matriptase [7] = target: T1, matriptase; experiment: siRNA knock-down of matriptase protein expression in Calu-3 cells (Western blot, densitometry); type: cell-based; settings: Calu-3, 50 nmol siRNA, 1.5 μl Lipofectamine RNAiMAX, 48 h after transfection
Description: Using RNA interference technology, siRNAs specific to human matriptase were targeted in these cells. Calu-3 cells were transfected with two different siRNAs (50 nmol, S1: s13520 (Ambion) Silencer® Select siRNAs gene symbol ST14; S2: EHU012511 (Sigma-Aldrich) MISSION® esiRNA targeting human ST14 (esiRNA1)) targeted toward matriptase mRNA (target sequence of EHU012511: […] […] […] […] (SEQ ID NO:5)) using various concentrations of Lipofectamine RNAiMAX™ (0.5 to 1.5 μl). Scrambled siRNAs were used as controls. 48 h after transfection, cellular protein extracts were prepared. Extracts were subjected to polyacrylamide gel electrophoresis (SDS-PAGE) and transferred to nitrocellulose membranes. Membranes were probed for matriptase protein expression using a rabbit anti-human matriptase-specific antibody. Membranes were blocked using non-fat dry milk in Tris-Buffered Saline (TBS) with Tween™ 20. Membranes were then labeled with a rabbit anti-human matriptase-specific antibody (Bethyl Laboratories Inc.).

matriptase [8] = target: T1, matriptase; experiment: Dissociation of enzyme:inhibitor complex by dilution recovery experiments; type: biochemical; settings: matriptase 0.5 μM pre-incubated 20 minutes, diluted 1:2000
Description: Dissociation of the enzyme-inhibitor (EI) complex was investigated using dilution recovery experiments. […] Complexes were rapidly (1:2000) diluted in a reaction buffer containing 400 μM of Boc-Gln-Ala-Arg-AMC (˜7 times Km). Activity was continuously recorded for 75 minutes and fluorescence plotted as a function of time.

CC(=O)NC(CCCNC(=N)N)C(=O)c1nc2ccccc2s1 (centres unmarked) [Compound 6, N-[1-(1,3-benzothiazol-2-yl)-5-carbamimidamido-1-oxopentan-2-yl]acetamide]
Ki (matriptase [1]): 0.457 µM
mode of inhibition (matriptase [1]; matriptase): mixed mode of inhibition
reduced potency (lower inhibition) compared to compound 1 (matriptase [1]): over 30,000 fold

C[C@H](NC(=O)[C@H](CCC(N)=O)NC(=O)[C@@H](N)CCCNC(=N)N)C(=O)N[C@@H](CCCNC(=N)N)C(=O)c1nc2ccccc2s1 [Compound 1, RQAR-ketobenzothiazole]
Ki (nM) (furin): no inhibition
inhibition of matriptase activity [2]: almost completely
inhibition at 1 µM (matriptase [3]; 1 μM): ~50%
inhibition at 10 µM (matriptase [3]; 10 μM): ~100%
influenza replication supported by matriptase ([4]; 1 μM): completely abrogate
influenza replication supported by matriptase ([4]; 10 μM): completely abrogate
effect on influenza replication with trypsin as the activating protease [5]: no effect
block of influenza replication [6]: more than 50%

CC(NC(=O)C(CCC(N)=O)NC(=O)C(N)CCCNC(=N)N)C(=O)NC(CCCNC(=N)N)C(O)c1nc2ccccc2s1 (centres unmarked) [Compound 2, 2-(2-amino-5-carbamimidamidopentanamido)-N-(1-{[1-(1,3-benzothiazol-2-yl)-5-carbamimidamido-1-hydroxypentan-2-yl]carbamoyl}ethyl)pentanediamide]
matriptase protein expression (matriptase [7]): significantly blocked

C[C@H](NC(=O)[C@H](CCC(N)=O)NC(=O)[C@@H](N)CCCNC(=N)N)C(=O)N[C@@H](CCCNC(=N)N)C(O)c1nc2ccccc2s1 (mixture of isomers) [Compound 2, 2-(2-amino-5-carbamimidamidopentanamido)-N-(1-{[1-(1,3-benzothiazol-2-yl)-5-carbamimidamido-1-hydroxypentan-2-yl]carbamoyl}ethyl)pentanediamide]
Ki (matriptase [1]): 6.1 µM

N=C(N)NCCC[C@H](NC(=O)CNC(=O)[C@@H](N)CCC(=O)O)C(=O)CCl [EGR-CMK, Glu-Gly-Arg chloromethyl ketone] (H-Glu-Gly-Arg-CH2Cl)
dissociation of enzyme:inhibitor complex (reversibility) (matriptase [8]): irreversible inhibition

CC(NC(=O)C(CCC(N)=O)NC(=O)C(N)CCCNC(=N)N)C(=O)NC(CCCCN)C(=O)c1nc2ccccc2s1 (centres unmarked) [Compound 3, N-(1-{[6-amino-1-(1,3-benzothiazol-2-yl)-1-oxohexan-2-yl]carbamoyl}ethyl)-2-(2-amino-5-carbamimidamidopentanamido)pentanediamide]
decrease of the Ki relative to compound 1 (matriptase [1]): about 3 orders of magnitude
inhibition at 1 µM ([2]; read-out: inhibition of matriptase activity): ~25%

C[C@H](NC(=O)[C@H](CCC(N)=O)NC(=O)[C@@H](N)CCCNC(=N)N)C(=O)N[C@@H](CC(=O)O)C(=O)N[C@H](CCCNC(=N)N)C(=O)c1nc2ccccc2s1 [Compound 7] (H-RQAD-X1)
reduced potency (lower inhibition) compared to compound 1 (matriptase [1]): 400 fold
